Measured values reported in patent publication US6660496B1 (priority 1993, dated 2003).
Entries after “also recorded” stand apart in the source; their conditions may differ.

Experiments:
kappa3 receptors = details: cited from earlier work
kappa3 opioid receptor = assay: Effect of antisense treatment on kappa3 analgesic activity (tailflick assay); format: in vivo; details: mice, 5 μg oligodeoxynucleotide intracerebroventricular on days 1, 3 and 5, quantal tailflick 15 min after drug; for Effect on analgesic response to NalBzoH: NalBzoH 15 μg on day 6; for Effect on analgesic response to morphine: morphine 1 μg on day 6

**Q.** Which “Binding to kappa3 receptors” value (kappa3 receptors) does the source give for `Oc1ccc2c3c1O[C@H]1c4[nH]c5c(c4C[C@@]4(O)[C@@H](C2)N(CC2CC2)CC[C@]314)C[C@@]1(O)[C@H]2Cc3ccc(O)c4c3[C@@]1(CCN2CC1CC1)[C@H]5O4` [nor-binaltorphimine] here?
**A.** The value was “do not bind U50,488H or nor-binaltorphimine very well”.

**Q.** Which “Effect on analgesic response to NalBzoH” value (kappa3 opioid receptor) does the source give for “antisense: anti-sense to the kappa3 clone (5′-GGGCTGTGCAGAAGCGCAGA-3′)(SEQ ID NO:3) (DNA, backbone and methylation of C not given here)” here?
**A.** The value was “markedly lowered; also recorded: markedly reduced”.

**Q.** What about the “Effect on analgesic response to morphine” value (kappa3 opioid receptor) of the same molecule?
**A.** Its value is “without interfering”.

**Q.** And the “Effect on analgesic response to morphine” value (kappa3 opioid receptor; listed as anti-sense)?
**A.** Its value is “unaffected”.

**Q.** What does the source list for “mismatched antisense: mismatched antisense in which two base pairs had been switched (5′-GGGTCGTGCAGAGACGCAGA-3′) (SEQ ID NO:5) (DNA, backbone and methylation of C not given here)”?
**A.** Effect on analgesic response to NalBzoH (kappa3 opioid receptor): unaffected; Effect on analgesic response to NalBzoH (kappa3 opioid receptor; listed as mismatched antisense probe): lack of activity

**Q.** What does the source list for “sense strand: complementary sense strand to the antisense oligodeoxynucleotide (5′-CCCGACACGTCTTCGC-GTCT-3′) (SEQ ID NO:4) (sense CCCGACACGTCTTCGCGTCT; DNA, backbone and methylation of C not given here)”?
**A.** Effect on analgesic response to NalBzoH (kappa3 opioid receptor): lack of activity; Effect on analgesic response to NalBzoH (kappa3 opioid receptor; listed as sense): unaffected
